Experimental data from patent US9663533B2, “Thieno[3,2-C]pyridin-4(5H)-ones as BET inhibitors” (GlaxoSmithKline LLC, priority 2012, dated 2017).
Structures can show the parent of a compound that is named as a salt.

Assays:
[1] = tested on: LPS induced IL-6 secretion from human whole blood; test: Quantification of LPS induced IL-6 secretion from human whole blood; format: cell-based; settings: LPS 200 ng/mL, 24 hours, MSD ELISA, read-out: pIC50, LPS induced IL-6 secretion (converted)
Text: Quantification of LPS Induced IL-6 Secretion from Human Whole Blood
Activation of monocytic cells by agonists of toll-like receptors such as bacterial lipopolysaccharide (LPS) leads to the activation of intracellular signaling pathways resulting in the production of key pro-inflammatory mediators including IL-6. Such pathways are widely considered to be central to the pathophysiology of a range of auto-immune and inflammatory disorders.
The impact of bromodomain inhibitors on IL-6 release was assessed in an LPS-stimulated human whole blood assay. Briefly, serial dilutions of test compounds were prepared in DMSO and 1 μL of the diluted compounds or vehicle (DMSO) was added to each well in a 96-well cell culture plate. Fresh blood was collected in heparinized tubes by venipuncture from volunteers with consent, and 130 uL/well was added in the culture plate already containing the compounds. The plates were then incubated for 30 min at 37° C. and 5% CO2 before the addition of 10 μl of 2.8 μg/mL LPS diluted in 1% BSA (LPS from Salmonella typhosa; Sigma L 6386 at a final concentration of 200 ng/mL). After further incubation for 24 hours at 37° C. and 5% CO2, 140 μl of PBS were added to each well. The plates were then sealed, shaken for 10 minutes and then centrifuged for 10 minutes at 2000 rpm. 100 μl of the supernatant were removed and IL-6 levels quantified using an MSD ELISA (MesoScale Discovery technology). Concentration response curves for each compound were generated and an IC50 values were calculated.

[2] = tested on: Bromodomain BRD4, mutated proteins (BD1 or BD2); test: FP assay: affinity of the fluoroligand for mutated versus non-mutated binding domain; set-up: species or system Human; settings: single residue mutations in the acetyl lysine binding pocket
Experimental: (§1) Binding was assessed using a fluorescence polarisation binding assay. This utilises a 6 His purification tag at the N-terminal of the proteins as an epitope for an anti-6 His antibody labeled with Europium chelate (PerkinElmer AD0111) allowing binding of the Europium to the proteins which acts as the donor fluorophore. A small molecule, high affinity binder of the bromodomains BRD2, BRD3, BRD4 and BRDT has been labeled with Alexa Fluor647 (Reference Compound X) and this acts as the acceptor in the FRET pair.
The binding of the compounds of formula (I) to Bromodomain BRD4 was assessed using mutated proteins to detect differential binding to either Binding Domain 1 (BD1) or Binding Domain 2 (BD2) on the bromodomain. These single residue mutations in the acetyl lysine binding pocket greatly lower the affinity of the fluoroligand (Reference Compound X) for the mutated domain (>1000 fold selective for the non-mutated domain). Therefore in the final assay conditions, binding of the fluoroligand to the mutated domain cannot be detected and subsequently the assay is suitable to determine the binding of compounds to the single non-mutated bromodomain.
Protein Production: Recombinant Human Bromodomains [BRD4 (1-477) (Y97A) and (Y390A)] were expressed in E. coli cells (in pET15b vector) with a 6-His tag at the N-terminal. […]

[3] = tested on: Bromodomains BRD2, BRD3, BRD4 and BRDT, mutated proteins (BD1 or BD2); test: TR-FRET assay: affinity of the fluoroligand for mutated versus non-mutated binding domain; set-up: species or system Human; settings: single residue mutations in the acetyl lysine binding pocket
Experimental: as §1, with “time resolved fluorescent resonance energy transfer” for “fluorescence polarisation”
The binding of the compounds of formula (I) to Bromodomains BRD2, BRD3, BRD4 and BRDT was assessed using mutated proteins to detect differential binding to either Binding Domain 1 (BD1) or Binding Domain 2 (BD2) on the bromodomain. These single residue mutations in the acetyl lysine binding pocket greatly lower the affinity of the fluoroligand (Reference Compound X) for the mutated domain (>1000 fold selective for the non-mutated domain). Therefore in the final assay conditions, binding of the fluoroligand to the mutated domain cannot be detected and subsequently the assay is suitable to determine the binding of compounds to the single non-mutated bromodomain. […]

Row | Compound | IC50 [1] [µM] | Selectivity of the fluoroligand for the non-mutated domain over the mutated domain [2] [fold] | Selectivity of the fluoroligand for the non-mutated domain over the mutated domain [3] [fold]
1 | C[C@@H]1CN(S(C)(=O)=O)CCN1Cc1cc2c(=O)n(C)cc(-c3ccncc3OCC3CC3)c2s1 [Example 168, (R)-7-(3-(cyclopropylmethoxy)pyridin-4-yl)-5-methyl-2-((2-methyl-4-(methylsulfonyl)piperazin-1-yl)methyl)thieno[3,2-c]pyridin-4(5H)-one] | ≤ 10 |  | 
2 | CC(Oc1cncc(-c2cn(C)c(=O)c3cc(CN4CCN(S(C)(=O)=O)CC4)sc23)c1)c1ccccn1 (racemic) [Example 3, (±)-5-methyl-2-((4-(methylsulphonyl)piperazin-1-yl)methyl)-7-(5-(1-(pyridin-2-yl)ethoxy)pyridin-3-yl)thieno[3,2-c]pyridin-4(5H)-one] | ≤ 10 |  | 
3 | CC(Oc1cncc(-c2cn(C)c(=O)c3cc(CN4CCN(S(C)(=O)=O)CC4)sc23)c1)c1ccccc1 (stereo not drawn) [Example 1, 5-methyl-2-((4-(methylsulphonyl)piperazin-1-yl)methyl)-7-(5-(1-phenylethoxy)pyridin-3-yl)thieno[3,2-c]pyridin-4(5H)-one hydrochloride] | ≤ 10 |  | 
4 | Cn1cc(-c2ccnc(OCC3CCOCC3)c2)c2sc(CN3CCN(S(C)(=O)=O)CC3)cc2c1=O [Example 7, 5-methyl-2-((4-(methylsulphonyl)piperazin-1-yl)methyl)-7-(2-((tetrahydro-2H-pyran-4-yl)methoxy)pyridin-4-yl)thieno[3,2-c]pyridin-4(5H)-one] | ≤ 10 |  | 
5 | CN1CCCN(Cc2cc3c(=O)n(C)cc(-c4cccc(OCc5ccccc5)c4)c3s2)CC1 [Example 40, 7-(3-(benzyloxy)phenyl)-5-methyl-2-((4-methyl-1,4-diazepan-1-yl)methyl)thieno[3,2-c]pyridin-4(5H)-one, Hydrochloride] | ≤ 10 |  | 
6 | CC(=O)Nc1cc(-c2cn(C)c(=O)c3cc(CN4CCN(S(C)(=O)=O)C[C@H]4C)sc23)ccn1 [Example 119, (R)-N-(4-(5-methyl-2-((2-methyl-4-(methylsulphonyl)piperazin-1-yl)methyl)-4-oxo-4,5-dihydrothieno[3,2-c]pyridin-7-yl)pyridin-2-yl)acetamide] | ≤ 10 |  | 
7 | COc1ccc2c(c1)C(c1ccc(Cl)cc1)=N[C@@H](CC(=O)NCCCCCNC(=O)CCCCCC1(C)/C(=C/C=C/C=C/C3=[N+](CCCCS(=O)(=O)O)c4ccc(S(=O)(=O)O)cc4C3(C)C)N(CCCCS(=O)(=O)[O-])c3ccc(S(=O)(=O)O)cc31)c1nnc(C)n1-2 (stereo partly drawn) [Reference Compound X] |  | > 1000 | > 1000
8 | CCCC[C@@H]1CN(Cc2cc3c(=O)n(C)cc(-c4ccc(OC)c(OC)c4)c3s2)CCN1 [Example 97, (R)-2-((3-butylpiperazin-1-yl)methyl)-7-(3,4-dimethoxyphenyl)-5-methylthieno[3,2-c]pyridin-4(5H)-one] | ≤ 10 |  | 
